This note sets out measurements from patent US20210301038A1, “POLYSIALIC ACID AND DERIVATIVES THEREOF, PHARMACEUTICAL COMPOSITION AND METHOD OF PRODUCING POLYSIALIC ACID” (Medizinische Hochschule Hannover (MHH), priority 2018, published 2021).

For series [1], the system named is layer II/III - layer V synapses in mPFC slices. Briefly: TBS-induced LTP (fEPSP) in sham- and endoNF-treated mPFC slices from C57BL/6 mice. The series is classed as cell-based, mouse. The settings on record: for LTP level 50-60 min after TBS: endoNF-treated slices, Ro 25-6981 0.3 μM, DP12 1 μg/ml, DP5 1 or 10 μg/ml, sarcosine 0.75 mM, SSR 504734 3 μM. As to the method: For endoNF treatment in C57BL/6J mice, slices were first allowed to recover for 20 min at room temperature (22-24° C.) in recording aCSF and were then placed in a 24-well plate to be incubated in 2 ml of aCSF without (sham) or with addition of endoNF (10 μg/ml) at 35° C. for 2 hours. The 24-well plate was installed in a water bath (ED, Julabo, Seelbach, Germany). For field excitatory postsynaptic potential (fEPSP) recordings in knockout and transgenic mice, mPFC slices were incubated in recording aCSF for >2 hours at room temperature before recordings. For patch-clamp recordings in knockout mice, slices were incubated first at 35° C. for 20 min and then at room temperature for >30 min before recordings started. The aCSF was continuously gassed with 95% O2/5% CO2 during all incubation steps and recordings.
Prefrontal slices (400 μm) were transferred to a submerged-type recording MC membrane chamber (volume 2 ml; Scientific Systems Design Inc., Mississauga, Ontario, Canada) perfused with oxygenated recording ACSF at a flow rate of 4 ml/min and maintained at room temperature (22-25° C.), unless stated otherwise in the “Results”-section given below. Field EPSPs were evoked and recorded using thin-walled glass electrodes (borosilicate glass, wall thickness 0.188, length 100, and outer diameter 1.5 mm, Hilgenberg, Malsfeld, Germany) filled with recording aCSF in 400 μm-thick mPFC slices. In order to stimulate electrically the input fibers of pyramidal cells, the stimulation electrode (0.3-0.5 MΩ) was inserted into layers II/III of the prelimbic cortex. The recording electrode (2-2.5 MΩ) was placed in the vicinity of dendrites and cell bodies of pyramidal neurons in layer V (Huang et al., 2004).
Before LTP induction, basal synaptic transmission was recorded in each slice and the relationship between stimulus intensity and fEPSP slope was measured. Basal fEPSPs were evoked at 0.05 Hz for at least 10 min. The supramaximal slope was determined by gradually increasing the stimulation intensity until a population spike in the fEPSP became first visible. The stimulation intensity was adjusted to elicit a basal fEPSP with a slope of approximately 50% of the supramaximal value.
LTP was induced by application of five trains of theta-burst stimulation (TBS) with an inter-theta-train interval of 20 s (Brennaman et al., 2011). Each train consisted of 8 bursts delivered at 5 Hz. Each burst consisted of four pulses delivered at 100 Hz. Duration of pulses was 0.2 ms. For calculation of the LTP level, the mean fEPSP slope was measured between 50-60 min after TBS delivery, and it was then normalized to mean baseline fEPSP slope during 0-10 min before TBS. Stimulus artifacts in representative fEPSP examples in figures were blanked to facilitate the perception of fEPSPs recorded in the mPFC. Recording and analysis of LTP in St8Sia4^−/− mice was performed in a blind manner.
The enzyme endosialidase NF (endoNF) (Stummeyer et al., 2005) and the short form of polysialic acid composed of 10 or twelve sialic acid residues (DP10 and DP12) were purified as described previously (Keys et al., 2014). Sialic acid (N-acetylneuraminic acid, DP1) and the pentamer of sialic acid sodium salt (DP5) were obtained from EY Laboratories (San Mateo, Calif., USA). DMB-labelled DP2 and DP12, and non-labelled avDP10-9OAc were synthesized in the laboratory of Rita Gerardy-Schahn (see sections Synthesis of DMB-DP2 and DMB-DP12 and Synthesis of avDP10-9OAc, respectively). […]

Series [2] has as its system dissociated hippocampal cultures (primary neural cells). Briefly: MTT assay of neural cell viability. The class given is cell-based, mouse. Conditions: 30 to 1000 nM, 48 hours, from 10th day in vitro; DP10 effect at 30, 100 and 300 nM. As to the method: Primary hippocampal cells were dissociated from embryonic mice on embryonic day 18. To prepare the primary neural cultures, pregnant C57/BL6J mice were sacrificed by cervical dislocation. Embryos were decapitated, and the hippocampi isolated from brains under sterile conditions and dissected. Enzymatic digestion by 0.25% trypsin/EDTA solution was followed by separation of the cells in serum-containing medium via trituration (10 passes, 1 ml pipette). The primary cells were seeded onto 96-well plates coated with 100 μg/ml poly-lysine and 20 μg/ml laminin. The plating density was 20,000 cells per well. First, 200 μl Dulbecco's modified Eagle's medium (DMEM) was applied per well (supplemented with 1% penicillin-streptomycin and 1% L-glutamine and 2% B27). After incubation for 2 h at 37° C./5% CO2, the medium was exchanged with the pre-warmed Neurobasal medium including 1% penicillin-streptomycin, 1% L-glutamine, and 2% B27. The cells—predominantly neurons and astrocytes—were incubated at 37° C. in 5% CO2 humidified atmosphere for 10 days before administration of reagents.
The assay was performed as described elsewhere with minor modifications (Khalid et al., 2018). Primary neural cells (see above) grown in a 96-well plate were exposed to drugs/vehicles for 48 h at 37° C./5% CO2. After aspiration of culture media, a washing was done with 100 μl phosphate buffered saline (PBS, pH=7.2). Then, PBS was completely removed, and 100 μl phenol red-free pre-warmed Neurobasal media and 50 μl MTT solution (3-(4,5-dimethylthiazol-2-yl)-2,5-diphenyltetrazolium bromide, 5 mg/ml; dissolved in PBS) were added to each well and plates were incubated for 4 h in an incubator. […] DMSO destroyed the cells and released the formazan, which was detected by optical density value at 560 nm, measured using a plate reader. Optical density values for wells containing cells were corrected by subtracting values measured in cell-free wells prepared and treated in the same way as wells containing control cells.
On the technique in general: Tetrazolium dyes change colour on reduction, which living cells bring about.

For the compound `C[C@@H](CN1CCC(Cc2ccccc2)CC1)[C@@H](O)c1ccc(O)cc1.O=C(O)/C=C\C(=O)O` [Ro 25-6981, (αR,βS)-α-(4-hydroxyphenyl)-β-methyl-4-(phenylmethyl)-1-piperidinepropanol maleate], the “LTP level 50-60 min after TBS” value in series [1] is recorded as “full restoration of LTP levels”. Further, the LTP magnitude result in series [1] (sham-treated slices, 0.3 μM) was “no effect”. Also, the “effect on neural cell viability” value in series [2] is reported as “no effects”.

On to (α(2→8)Neu5Ac)12 [DP12], for which the “LTP level 50-60 min after TBS” value in series [1] is given as “full restoration of LTP levels”. For the same compound, in series [2], the “effect on neural cell viability” value is “No effects”.
